Literature values as cited in US8222245B2, “Oxadiazole derivatives active on sphingosine-1-phosphate (S1P)” (Glaxo Group Limited, priority 2007, dated 2012).

How the values were obtained:
[1] = system: circulating lymphocytes; details: animals and man
[2] = clinical studies, first 24 hours of treatment

Structure (SMILES): CCCCCCCCc1ccc(CCC(N)(CO)CO)cc1 [FTY720]
- effect on circulating lymphocytes [1]: reduce circulating lymphocytes in animals and man
- bradycardia on treatment [2]: bradycardia in the first 24 hours of treatment
